The source of these data is patent US20070134660A1, “Methods for identifying modulators of kinesin activity” (ROSETTA INPHARMATICS LLC, priority 2003, published 2007).

One assay deals with T1, KIF1B (SEQ ID NO:21) (Homo sapiens, UniProt O60333).
T1 construct: His6 (printed only as 'H')
T1 sequence (O60333 with tags, fused parts or gaps): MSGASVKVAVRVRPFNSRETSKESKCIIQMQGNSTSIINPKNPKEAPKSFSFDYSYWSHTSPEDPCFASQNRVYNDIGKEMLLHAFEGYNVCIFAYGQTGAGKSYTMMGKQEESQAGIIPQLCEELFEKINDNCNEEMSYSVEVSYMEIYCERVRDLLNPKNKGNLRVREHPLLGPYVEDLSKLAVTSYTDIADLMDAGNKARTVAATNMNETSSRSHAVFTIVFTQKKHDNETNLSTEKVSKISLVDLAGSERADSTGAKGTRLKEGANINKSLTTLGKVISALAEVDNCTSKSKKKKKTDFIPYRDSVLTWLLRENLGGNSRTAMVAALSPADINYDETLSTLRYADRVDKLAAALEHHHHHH
As to the kind of experiment: KIF1B motor domain ATPase assay. The assay is classed as biochemical. The following applies: read-out: uKHC, nKHC, CENP-E, MKLP-1, KIF1B, MCAK ATPase IC50.

Assay [1] addresses T2, KIF14 V342-K720 MD protein (SEQ ID NO:4) (Homo sapiens, UniProt Q15058).
T2 construct: made in house; host or cells: E. coli BL21 (DE3)
T2 sequence (Q15058 with tags, fused parts or gaps): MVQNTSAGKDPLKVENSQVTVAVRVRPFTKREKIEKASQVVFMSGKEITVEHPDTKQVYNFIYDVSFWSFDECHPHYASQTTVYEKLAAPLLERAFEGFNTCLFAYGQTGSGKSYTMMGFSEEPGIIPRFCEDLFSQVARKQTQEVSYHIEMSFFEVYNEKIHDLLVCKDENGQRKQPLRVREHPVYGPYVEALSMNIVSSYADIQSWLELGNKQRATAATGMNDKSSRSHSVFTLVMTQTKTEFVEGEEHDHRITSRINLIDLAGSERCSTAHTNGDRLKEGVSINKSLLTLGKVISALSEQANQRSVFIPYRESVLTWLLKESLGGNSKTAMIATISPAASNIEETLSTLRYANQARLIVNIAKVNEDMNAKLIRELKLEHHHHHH
As to the kind of experiment: KIF14 motor domain microtubule-dependent ATPase assay (Quinaldine Red). Conditions: n = 2. The assay is classed as biochemical. On the procedure:
KIF14 Motor Domain Assay: KIF14 MDs were assayed for microtubule (MT)-dependent ATP hydrolysis by measuring the rate of inorganic phosphate (Pi) release using the dye Quinaldine Red, which absorbs light of 540 nm when bound to Pi. Assays (50 microliters) contained 50 mM K-PIPES pH 6.9 (which contains 90 mM KCl), 1 mM EGTA pH 8.0, 1 mM DTT, 100 micrograms/mL BSA, 2 mM MgCl2, 1 mM Na-ATP pH 7.0, 0.25-5 micromolar MT (which contain equimolar amounts of Taxol®), and 20-200 nM KIF14 MD enzyme. Reactions were initiated by the addition of enzyme and allowed to proceed at room temperature until they were quenched at regular time intervals by the addition of 50 microliters of 1.8 M KCl, 50 mM EDTA. To this was added 150 microliters of the Quinaldine Red dye solution (0.07 mg/mL quinaldine red, 0.09% polyvinyl alcohol, 4.1 mM ammonium molybdate, and 380 mM H2SO4). After 10 min incubation at room temperature, absorbance at 540 nm was read on a Molecular Devices Microtiter plate reader. Rates were calculated using the linear (steady-state) phase of the reaction.
Suitability of K14 Motor Domains for high-throughput screening: The motor domain assay was as described above, using 50 mM MES pH 6.0, 20 mM added KCl, 0.5 micromolar MTs, a temperature of 37° C., and varying enzyme concentration from 0 to 10 nM. The signal to background ratio, calculated as the amount of Pi formed after a 90 minute incubation in the presence of enzyme relative to in the absence of enzyme, was determined using different concentrations of the V342-K720 motor domain (SEQ ID NO:4), and is shown in Table 9. A high enough signal over background was obtained at low enzyme concentrations to allow high-through-put screening (HTS). Moreover, the V342-K720 motor domain (SEQ ID NO:4) was stable in the reaction for at least 90 minutes.
Screen for KIF14 Modulators: The ATPase assay described in EXAMPLE 7, as optimized in EXAMPLE 8, was used to screen for compounds that modulated the activity of the KIF14 V342-K720 MD protein (SEQ ID NO:4).

The next assay deals with T3, KIF3A (SEQ ID NO:16) (Homo sapiens, UniProt Q9Y496).
T3 construct: His6 (printed only as 'H')
T3 sequence (Q9Y496 with tags, fused parts or gaps): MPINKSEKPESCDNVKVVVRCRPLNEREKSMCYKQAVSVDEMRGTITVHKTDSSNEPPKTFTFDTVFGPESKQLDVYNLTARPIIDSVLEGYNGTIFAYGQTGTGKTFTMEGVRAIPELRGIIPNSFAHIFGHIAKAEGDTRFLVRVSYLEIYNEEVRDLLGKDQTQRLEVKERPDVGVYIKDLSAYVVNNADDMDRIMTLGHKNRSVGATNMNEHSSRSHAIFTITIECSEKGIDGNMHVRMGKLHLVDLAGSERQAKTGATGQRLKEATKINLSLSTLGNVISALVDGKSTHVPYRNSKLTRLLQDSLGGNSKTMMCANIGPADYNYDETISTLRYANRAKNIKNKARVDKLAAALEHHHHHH
As to the kind of experiment: KIF3A motor domain ATPase assay. Conditions: n = 2. Format: biochemical.

The subject of the next assay is A2780 cells. As to the kind of experiment: alamarBlue cell growth assay, candidate KIF14 modulators in A2780 cells. Conditions: Homo sapiens, 48 hour incubation; for EC50: read-out: EC50 (nM), Growth Inhibition in A2780 Cells; for inhibition at 0.0137 µM: [Compound] 13.7 nM; for inhibition at 0.0141 µM: [Compound] 14.1 nM; for inhibition at 0.123 µM: [Compound] 123 nM; for inhibition at 0.37 µM: [Compound] 370 nM; for inhibition at 1.111 µM: [Compound] 1111 nM; for inhibition at 3.333 µM: [Compound] 3333 nM; for inhibition at 10 µM: [Compound] 10000 nM. The assay is classed as cell-based. On the procedure: alamarBlue™ Assay for Cell Growth: The alamarBlue™ assay is a measure of cellular respiration and is used as a measure of live cell number. The internal environment of the proliferating cell is more reduced than that of non-proliferating cells. Specifically, the ratios of NADPH/NADP, FADH/FAD, FMNH/FMN, and NADH/NAF increase during proliferation. alamarBlue™ can be reduced by these metabolic intermediates and, therefore, can be used to monitor cell proliferation.
A2780 cells were plated at a density of 4000/cells per well in RPMI1640 (containing 10% FBS, 1% Pen/Strep, 0.01 mg/ml insulin) in a 96-well plate (Costar, Cat. No. 3606) 16 hours prior to treatment. A compound dilution plate was prepared from a 10 mM stock solution using a 3-fold serial dilution series in DMSO. A 1.2 microliter aliquot of each concentration was transferred into 0.6 ml of medium. A 100 microliter aliquot of each concentration was added to the appropriate wells already containing 100 microliters of compound-free medium. After a 48 hour incubation at 37° C., 20 microliters of alamarBlue™ was added to each well (10% vol/vol). After an additional 6 hour incubation at 37° C., the plates were read on a spectrofluorimeter SpectroMax Gemini (excitation 544 nm, emission 590 nm). The background value (averaged from wells with no cells) was subtracted from each reading.
For orientation: The colour change of resazurin is a common sign of viable cells or microbes.

For orientation: IC50 means the point on the concentration scale where inhibition reaches its midpoint. In general, EC50 refers to the midpoint of the concentration-response curve. As a reminder, the inhibition is the relative decrease from the control value, in per cent. Consider `NC(=S)N/N=C/c1ccc(C2CCCCC2)cc1` [compound 3, 4-cyclohexylbenzaldehyde thiosemicarbazone], for which the concentration for half-maximal inhibition (IC50) on KIF1B (SEQ ID NO:21) was above 40000 nM. Moreover, half-maximal inhibition in assay [1] (IC50) required 76 nM. Moreover, on KIF3A (SEQ ID NO:16), inhibition was half-maximal at 699 nM (IC50). Also, in the assay on A2780 cells, the EC50 was determined as 3600 nM, the inhibition at 0.0137 µM is -5.3%, the inhibition at 0.0141 µM is -8.1% and the inhibition at 0.123 µM is -10.4%. Further, in the assay with A2780 cells, the inhibition at 0.37 µM worked out at 7.8%, the inhibition at 1.111 µM was found to be 6%, the inhibition at 3.333 µM was 39.8% and the inhibition at 10 µM was found to be 107%.
As for `NC(=S)N/N=C\c1ccc(-c2ccccc2)cc1` [compound 1, 1,1′-biphenyl-4-carbaldehyde thiosemicarbazone], at KIF1B (SEQ ID NO:21), the IC50 was above 40000 nM. Further, the IC50 in assay [1] was found to be 182 nM. On KIF3A (SEQ ID NO:16), this compound gave an IC50 of 631 nM. In addition, in the assay with A2780 cells, the EC50 was above 10000 nM, the inhibition at 0.0137 µM was -4.5%, the inhibition at 0.0141 µM turned out to be 11.6% and the inhibition at 0.123 µM was -10.3%. For the same compound, in the assay on A2780 cells, the inhibition at 0.37 µM stood at 19%, the inhibition at 1.111 µM turned out to be 18.7%, the inhibition at 3.333 µM came to 23.6% and the inhibition at 10 µM stood at 31.3%.
In the case of `CC(C)c1ccc(/C=N/NC(N)=S)cc1` [compound 2, 4-isopropylbenzaldehyde thiosemicarbazone], the half-maximal inhibitory concentration (IC50) at KIF1B (SEQ ID NO:21) was above 40000 nM; in assay [1] it was 895 nM; against KIF3A (SEQ ID NO:16), 31000 nM.
Take `CC(C)c1ccc(/C=N/NC(N)=S)cc1[N+](=O)[O-]` [compound 4, 4-isopropyl-3-nitrobenzaldehyde thiosemicarbazone]: the IC50 on KIF1B (SEQ ID NO:21) was above 40000 nM. The compound also displayed an IC50 in assay [1] of 54 nM. At KIF3A (SEQ ID NO:16), this compound displayed a half-inhibitory concentration (IC50) of 1550 nM. In the assay with A2780 cells, the EC50 came to 7980 nM, the inhibition at 0.0137 µM was -7%, the inhibition at 0.0141 µM is -4% and the inhibition at 0.123 µM is -9.2%. Also, in the assay on A2780 cells, the inhibition at 0.37 µM was 4.4%, the inhibition at 1.111 µM turned out to be 7.5%, the inhibition at 3.333 µM came out at 25% and the inhibition at 10 µM turned out to be 61.8%.
